# Reference: patent US20110117120A1, “Plasmodium falciparum HLA class I restricted T-cell epitopes” (priority 2009, published 2011)
# Assays:
# Type in all cases: cell-based, human
# [1] = test system: PBMC; experiment: ELISpot IFN-γ assay with PBMC of Ad5-PfCA immunized volunteers (Example 1); details: for IFN-γ ELISpot activity of individual 15-mer peptide: threshold 40 SFC/million; for ELISpot activity of 1 month PBMC: v005, PBMC 1 month
# Experimental: In order to assess the pools for their ability to induce T-cell responses, specifically CD 8^+ responses, PBMC, 1 month post immunization were used, from the five volunteers in Table 1, in ELISpot assays. In these studies, IFN-γ activity was measured in response to exposure to the peptide pools. The assays were conducted essentially as described by Wang, et al., Proc. Natl. Acad. Sci. (U.S.A.), 98: 10817-22.
# The stimulation of circulating antigen-specific T cell lymphocytes was evaluated by measurement of γ-IFN induction by ELISPOT. The ELISpot assay was conducted using thawed cryopreserved PBMC at 200 K cells per well. Pre-challenge cells were taken at day 21 and day 22 post AdPfCA vaccination. Cells were suspended in […] complete medium and were stimulated with AMA1 peptides suspended in […] of complete medium. Peptide concentrations used in assays was 10 μg/ml of each peptide tested. Cultures were incubated for 36 h at 37° C., 5% CO2. Depending on availability of cells, each PBMC sample was assayed in duplicate, triplicate, or quadruplicate and the number of IFN-γ-secreting cells recognized as spot-forming cells (SFC) was enumerated using an automated ELISpot reader. In duplicate assays, all values were used in analysis. For triplicate or quadruplicate assays, outliers were rejected if any single value contributed more than 50% of the standard deviation of the triplicate (or quadruplicate) and if its value was three-fold greater or less than the average of the remaining two (or three) values. The mean spot forming cells (SFCs) obtained in negative control wells were subtracted from the value of each test well from the same sample. Negative counts generated by this background subtraction were converted to zero. The mean spot number of the test sample was then calculated and expressed as SFC/million PBMCs. Values obtained with pre-vaccinated samples were subtracted from the post-vaccination values.
# [2] = test system: CD8+ or CD4+ T-cell depleted PBMC; experiment: ELISpot IFN-γ assay after CD8+ or CD4+ T-cell depletion (Example 2, Table 6); details: for CD4^+ depletion, test: CD4+ depleted; for CD8^+ Depletion, test: CD8+ depleted
# Experimental: PBMC population depletion was conducted using anti-human CD4+ and anti-CD8^+ coated Dynabeads™ M-450 (Dynal, Great Neck, N.Y.) following the manufacturer's instructions. Mock depletion was done with Dynabeads coated with Sheep anti-mouse IgG. Flow cytometry confirmed that T-cell subset depletions were >99% in all experiments. The data is presented as the % effect (decrease) in activity after T cell subset depletion. […]
# The results of this study, summarized in Table 6, identified other CD8^+ epitopes, associated specific HLA class I genes.
# [3] = test system: CD4+ or CD8+ T cell depleted PBMC; experiment: ELISpot IFN-γ assay after CD4+ or CD8+ T cell depletion of PBMC (Example 1); design: % change of ELISpot activity, CD8 dep vs control: concentration or dose not given beside the values; ELISpot IFN-γ activity, Control dep / ELISpot IFN-γ activity, CD4 dep / ELISpot IFN-γ activity, CD8 dep: unit not given here; details: for ELISpot IFN-γ activity, CD4 dep: CD4+ T cells depleted; for ELISpot IFN-γ activity, CD8 dep: CD8+ T cells depleted; for ELISpot IFN-γ activity, Control dep: mock depletion
# Experimental: PBMC population depletion was conducted using anti-human CD4+ and anti-CD8^+ coated Dynabeads™ M-450 (Dynal, Great Neck, N.Y.) following the manufacturer's instructions. Mock depletion was done with Dynabeads coated with Sheep anti-mouse IgG. Flow cytometry confirmed that T-cell subset depletions were >99% in all experiments. The data is presented as the % effect (decrease) in activity after T cell subset depletion.
# Finally, we wanted to confirm that indeed the responses to AMA14e were mediated by CD8^+ T cells. We compared activity to AMA14e in ELISpot depletion assays and ICS CD4^+ or CD8^+ T cell IFN-γ assays with Ap1-12 and recombinant AMA1 protein with v001 and v005 (FIG. 3). CD8^+ T cell depletion reduced ELISpot activity to AMA14e by about 85% in v001 and 95% in v005.
# [4] = Vol. 1550-10, 12 wk post challenge
# [5] = Vol. 1550-11, 4 wk post challenge
sequence,measurement,setting,value
CEIFNVKPTCLINNS [Ap8-12],IFN-γ ELISpot activity of individual 15-mer peptide,[1]; Volunteer 005,127 SFC/10^6
CNKLVFELSASDQPK [Ap7-7],IFN-γ ELISpot activity of individual 15-mer peptide,[1]; Volunteer 001,77 SFC/10^6
EDIPHVNEFPAIDLF [Ap7-3],IFN-γ ELISpot activity of individual 15-mer peptide,[1]; Volunteer 001,139 SFC/10^6
EMRHFYKDNKYVKNL [Ap4-11],IFN-γ ELISpot activity of individual 15-mer peptide,[1]; Volunteer 005,65 SFC/10^6
same,ELISpot activity of 1 month PBMC,[1],65 sfc/m
ETQKCEIFNVKPTCL [Ap8-11],IFN-γ ELISpot activity of individual 15-mer peptide,[1]; Volunteer 001,48 SFC/10^6
same,IFN-γ ELISpot activity of individual 15-mer peptide,[1]; Volunteer 005,218 SFC/10^6
same,IFN-γ ELISpot activity of individual 15-mer peptide,[1]; Volunteer 008,48 SFC/10^6
FKADRYKSHGKGYNW [Ap8-6],CD4^+ depletion % change,[2]; [4],26%
same,CD8^+ Depletion % change,[2]; [4],100%
same,"CD4^+ depletion, test",[2]; [4],81 SFC/10^6
same,"CD8^+ Depletion, test",[2]; [4],0 SFC/10^6
same,"CD4^+ depletion, control",[2]; [4],109 SFC/10^6
same,"CD8^+ Depletion, control",[2]; [4],109 SFC/10^6
same,IFN-γ ELISpot activity of individual 15-mer peptide,[1]; Volunteer 012,143 SFC/10^6
HVNEFPAIDLFECNK [Ap7-4],IFN-γ ELISpot activity of individual 15-mer peptide,[1]; Volunteer 001,96 SFC/10^6
INEHREHPKEYEYPL [Ap1-11],"% change of ELISpot activity, CD4 dep vs control",[3]; V002,−18%
same,"% change of ELISpot activity, CD8 dep vs control",[3]; V002,−94%
same,"ELISpot IFN-γ activity, CD4 dep",[3]; V002,152
same,"ELISpot IFN-γ activity, CD8 dep",[3]; V002,11
same,"ELISpot IFN-γ activity, Control dep",[3]; V002,185
same,"% change of ELISpot activity, CD4 dep vs control",[3]; V005,−37%
same,"% change of ELISpot activity, CD8 dep vs control",[3]; V005,−100%
same,"ELISpot IFN-γ activity, CD4 dep",[3]; V005,145
same,"ELISpot IFN-γ activity, CD8 dep",[3]; V005,0
same,"ELISpot IFN-γ activity, Control dep",[3]; V005,233
same,IFN-γ ELISpot activity of individual 15-mer peptide,[1]; Volunteer 002,180 SFC/10^6
same,IFN-γ ELISpot activity of individual 15-mer peptide,[1]; Volunteer 005,322 SFC/10^6
KEYEYPLHQEHTYQQ [Ap1-13],"% change of ELISpot activity, CD4 dep vs control",[3]; V001,+133%
same,"% change of ELISpot activity, CD8 dep vs control",[3]; V001,−76%
same,"ELISpot IFN-γ activity, CD4 dep",[3]; V001,168
same,"ELISpot IFN-γ activity, CD8 dep",[3]; V001,17
same,"ELISpot IFN-γ activity, Control dep",[3]; V001,72
same,IFN-γ ELISpot activity of individual 15-mer peptide,[1]; Volunteer 001,42 SFC/10^6
LLSAFEFTYMINFGR [Ap1-3],"% change of ELISpot activity, CD4 dep vs control",[3]; V001,−32%
same,"% change of ELISpot activity, CD8 dep vs control",[3]; V001,−56%
same,"ELISpot IFN-γ activity, CD4 dep",[3]; V001,58
same,"ELISpot IFN-γ activity, CD8 dep",[3]; V001,37
same,"ELISpot IFN-γ activity, Control dep",[3]; V001,85
same,IFN-γ ELISpot activity of individual 15-mer peptide,[1]; Volunteer 001,48 SFC/10^6
LMSPMTLDEMRHFYK [Ap4-9],"% change of ELISpot activity, CD4 dep vs control",[3]; V005,−32%
same,"% change of ELISpot activity, CD8 dep vs control",[3]; V005,−100%
same,"ELISpot IFN-γ activity, CD4 dep",[3]; V005,137
same,"ELISpot IFN-γ activity, CD8 dep",[3]; V005,1
same,"ELISpot IFN-γ activity, Control dep",[3]; V005,204
same,IFN-γ ELISpot activity of individual 15-mer peptide,[1]; Volunteer 002,189 SFC/10^6
same,IFN-γ ELISpot activity of individual 15-mer peptide,[1]; Volunteer 005,395 SFC/10^6
MTLDEMRHFYKDNKY [Ap4-10],IFN-γ ELISpot activity of individual 15-mer peptide,[1]; Volunteer 002,82 SFC/10^6
same,IFN-γ ELISpot activity of individual 15-mer peptide,[1]; Volunteer 005,118 SFC/10^6
NQYLKDGGFAFPPTE [Ap4-5],IFN-γ ELISpot activity of individual 15-mer peptide,[1]; Volunteer 005,50 SFC/10^6
same,ELISpot activity of 1 month PBMC,[1],50 sfc/m
NSTCRFFVCK (listed as Plasmodium falciparum),CD4^+ depletion % change,[2]; [5],26%
same,CD8^+ Depletion % change,[2]; [5],100%
same,"CD4^+ depletion, test",[2]; [5],153 SFC/10^6
same,"CD8^+ Depletion, test",[2]; [5],0 SFC/10^6
same,"CD4^+ depletion, control",[2]; [5],207 SFC/10^6
same,"CD8^+ Depletion, control",[2]; [5],207 SFC/10^6
same,T-cell response in ELISpot,[2]; primarily attributable to CD8^+ T-cell response,stimulated a significant T-cell response
QNSDVYRPINEHREH [Ap1-9],IFN-γ ELISpot activity of individual 15-mer peptide,[1]; Volunteer 001,48 SFC/10^6
RYKSHGKGYNWGNYN [Ap8-7],CD4^+ depletion % change,[2]; [4],26%
same,CD8^+ Depletion % change,[2]; [4],99%
same,"CD4^+ depletion, test",[2]; [4],54 SFC/10^6
same,"CD8^+ Depletion, test",[2]; [4],1 SFC/10^6
same,"CD4^+ depletion, control",[2]; [4],72 SFC/10^6
same,"CD8^+ Depletion, control",[2]; [4],72 SFC/10^6
TSNNEVVVKEEYKDE [Ap10-13],"% change of ELISpot activity, CD4 dep vs control",[3]; V001,+148%
same,"% change of ELISpot activity, CD8 dep vs control",[3]; V001,−88%
same,"ELISpot IFN-γ activity, CD4 dep",[3]; V001,252
same,"ELISpot IFN-γ activity, CD8 dep",[3]; V001,13
same,"ELISpot IFN-γ activity, Control dep",[3]; V001,103
same,"% change of ELISpot activity, CD4 dep vs control",[3]; V012,+14%
same,"% change of ELISpot activity, CD8 dep vs control",[3]; V012,−100%
same,"ELISpot IFN-γ activity, CD4 dep",[3]; V012,90
same,"ELISpot IFN-γ activity, CD8 dep",[3]; V012,0
same,"ELISpot IFN-γ activity, Control dep",[3]; V012,79
same,IFN-γ ELISpot activity of individual 15-mer peptide,[1]; Volunteer 001,250 SFC/10^6
same,IFN-γ ELISpot activity of individual 15-mer peptide,[1]; Volunteer 012,233 SFC/10^6
